Results on 25 compounds are retold here after patent US9434725B2, “5-azaindazole compounds and methods of use” (priority 2012, dated 2016).

Type in all cases: biochemical
The target of test [1] is PIM3 (Homo sapiens (Human), UniProt Q86V86). The test is described as follows: Pim kinase binding activity, Caliper LC3000 microfluidic peptide phosphorylation assay, PIM3. Conditions: 10 μM ATP, 90 min, room temperature; read-out: PIM3 LC3K (KI). The procedure:
(§1) A fluorescent-labeled Pim-specific peptide substrate, was custom synthesized by American Peptide Company (Sunnyvale, Calif.). Reaction Buffer contained 10 mM HEPES, pH 7.2, 10 mM MgCl2, 0.01% Tween 20, 2 mM DTT. Termination Buffer contained 190 mM HEPES, pH 7.2, 0.015% Brij-35, 0.2% Coating Reagent 3 (Caliper Life Sciences, Hopkinton, Mass.), 20 mM EDTA. Separation Buffer contained 100 mM HEPES, pH 7.2, 0.015% Brij-35, 0.1% Coating Reagent 3, 1:200 Coating Reagent 8 (Caliper Life Sciences, Hopkinton, Mass.), 10 mM EDTA and 5% DMSO.
(§2) PIM reactions were carried out in a final volume of 10 μL per well in a 384-well plate. […] After 90 minutes of incubation at room temperature, the phosphorylation reaction was stopped by the addition of 10 μL Termination Buffer. The product and substrate in each independent reaction were separated on a 12-sipper microfluidic chip (Caliper Life Sciences, Hopkinton, Mass.) run on a Caliper LC3000® (Caliper Life Sciences, Hopkinton, Mass.). The separation of product and substrate was optimized by choosing voltages and pressure using Caliper's Optimizer software (Hopkinton, Mass.). […] Substrate conversion was calculated from the electropherogram using HTS Well Analyzer software (Caliper Life Sciences, Hopkinton, Mass.). Ki values for the test compound were calculated.

Test [2] addresses PIM1 (Homo sapiens (Human), UniProt P11309). Description: biochemical. As to conditions: 10 μM ATP, 90 min, room temperature; read-out: PIM1 LC3K (KI). How it is done:
as §1, §2

For test [3], the target named is PIM2 (Homo sapiens (Human), UniProt Q9P1W9). Description: Pim kinase binding activity, Caliper LC3000 microfluidic peptide phosphorylation assay, PIM2. As to conditions: 10 μM ATP, 90 min, room temperature; read-out: PIM2 LC3K (KI). The procedure:
as §1, §2

Structures are written as SMILES.

Sequence of PIM2 (Q9P1W9 whole entry): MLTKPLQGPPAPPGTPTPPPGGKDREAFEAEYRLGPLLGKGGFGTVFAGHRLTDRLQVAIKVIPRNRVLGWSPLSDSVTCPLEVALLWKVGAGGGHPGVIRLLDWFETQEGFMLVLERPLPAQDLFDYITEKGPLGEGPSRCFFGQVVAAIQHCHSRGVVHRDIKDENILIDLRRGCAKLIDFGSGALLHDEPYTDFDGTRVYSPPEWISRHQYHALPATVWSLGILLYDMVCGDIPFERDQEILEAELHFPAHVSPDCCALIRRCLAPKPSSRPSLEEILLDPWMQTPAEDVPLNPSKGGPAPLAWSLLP
Sequence of PIM1 (P11309 whole entry): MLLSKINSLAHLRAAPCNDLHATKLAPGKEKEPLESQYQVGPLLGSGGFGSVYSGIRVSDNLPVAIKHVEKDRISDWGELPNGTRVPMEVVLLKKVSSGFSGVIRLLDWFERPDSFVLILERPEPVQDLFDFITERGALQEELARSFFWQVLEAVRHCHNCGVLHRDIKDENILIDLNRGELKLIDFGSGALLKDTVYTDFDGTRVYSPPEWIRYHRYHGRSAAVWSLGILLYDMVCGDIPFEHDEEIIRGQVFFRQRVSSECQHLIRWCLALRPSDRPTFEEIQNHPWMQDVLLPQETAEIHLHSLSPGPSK

As a reminder, the Ki is a dissociation constant, usually derived from enzyme kinetics or from competition with a known ligand. `CCn1cc(-c2cc3c(cn2)cnn3-c2cccc(N3CCN[C@@H](C)C3)n2)cn1` [Compound 126, (S)-6-(1-ethyl-1H-pyrazol-4-yl)-1-(6-(3-methylpiperazin-1-yl)pyridin-2-yl)-1H-pyrazolo[4,3-c]pyridine]: the results for the Ki in test [1], in test [2] and in test [3] were 0.349 nM, 0.349 nM and 7.36 nM, respectively.
`CCn1cc(-c2cc3c(cn2)cnn3-c2cccc(N3CCC(O)CC3)n2)cn1` [Compound 129, 1-(6-(6-(1-ethyl-1H-pyrazol-4-yl)-1H-pyrazolo[4,3-c]pyridin-1-yl)pyridin-2-yl)piperidin-4-ol]: the Ki in test [1] was determined as 2.46 nM; in test [2], 3.47 nM; in test [3] it was 28.3 nM.
The like results for `CCn1cc(-c2cc3c(cn2)cnn3-c2cccc(N3CCNC(C)(C)C3)n2)cn1` [Compound 131, 1-(6-(3,3-dimethylpiperazin-1-yl)pyridin-2-yl)-6-(1-ethyl-1H-pyrazol-4-yl)-1H-pyrazolo[4,3-c]pyridine] were, in that order, 0.385 nM, 0.58 nM and 15.9 nM.
For the compound `CCn1cc(-c2cc3c(cn2)cnn3-c2cccc(N3CCC(N)CC3)n2)cn1` [Compound 132, 1-(6-(6-(1-ethyl-1H-pyrazol-4-yl)-1H-pyrazolo[4,3-c]pyridin-1-yl)pyridin-2-yl)piperidin-4-amine], the inhibitory constant (Ki) in test [1] was found to be 0.87 nM; in test [2], 1.56 nM; in test [3], 19.3 nM.
Consider `CCn1cc(-c2cc3c(cn2)cnn3-c2cccc(N3CCC[C@@H](N)C3)n2)cn1` [Compound 134, (R)-1-(6-(6-(1-ethyl-1H-pyrazol-4-yl)-1H-pyrazolo[4,3-c]pyridin-1-yl)pyridin-2-yl)piperidin-3-amine], for which the values for the Ki in test [1], in test [2] and in test [3] were 0.473 nM, 0.951 nM and 10.8 nM, respectively.
`CCn1cc(-c2cc3c(cn2)cnn3-c2cccc(N3CC[C@H](N)C3)n2)cn1` [Compound 135, (S)-1-(6-(6-(1-ethyl-1H-pyrazol-4-yl)-1H-pyrazolo[4,3-c]pyridin-1-yl)pyridin-2-yl)pyrrolidin-3-amine]: the Ki was determined as 0.84 nM in test [1], 2.12 nM in test [2] and 11.1 nM in test [3].
The like results for `CCn1cc(-c2cc3c(cn2)cnn3-c2cccc(N3CC[C@@H](N)C3)n2)cn1` [Compound 136, (R)-1-(6-(6-(1-ethyl-1H-pyrazol-4-yl)-1H-pyrazolo[4,3-c]pyridin-1-yl)pyridin-2-yl)pyrrolidin-3-amine] were, in that order, 0.615 nM, 2.05 nM and 17.3 nM.
For the compound `CCn1cc(-c2cc3c(cn2)cnn3-c2cccc(N3CCCC(N)CC3)n2)cn1` (stereo not drawn) [Compound 140, 1-(6-(6-(1-ethyl-1H-pyrazol-4-yl)-1H-pyrazolo[4,3-c]pyridin-1-yl)pyridin-2-yl)azepan-4-amine], the values for the Ki in test [1], in test [2] and in test [3] were 0.454 nM, 1.04 nM and 13.4 nM, respectively.
For `CC[C@@H]1CN(c2cccc(-n3ncc4cnc(-c5cnn(CC)c5)cc43)n2)CCN1` [Compound 142, (R)-6-(1-ethyl-1H-pyrazol-4-yl)-1-(6-(3-ethylpiperazin-1-yl)pyridin-2-yl)-1H-pyrazolo[4,3-c]pyridine], in that order: 0.458 nM, 0.802 nM and 15 nM.
For `CCn1cc(-c2cc3c(cn2)cnn3-c2cccc(NC3CCCCNC3)n2)cn1` (stereo not drawn) [Compound 143, N-(6-(6-(1-ethyl-1H-pyrazol-4-yl)-1H-pyrazolo[4,3-c]pyridin-1-yl)pyridin-2-yl)azepan-3-amine], the values for the inhibition constant Ki in test [1], in test [2] and in test [3] were 1.62 nM, 2.46 nM and 31.1 nM, respectively.
Consider `Cn1ncc(-c2cc3c(cn2)cnn3-c2cccc(N3CCCNCC3)n2)cc1=O` [Compound 148, 5-(1-(6-(1,4-diazepan-1-yl)pyridin-2-yl)-1H-pyrazolo[4,3-c]pyridin-6-yl)-2-methylpyridazin-3(2H)-one], for which the Ki is 45.2 nM in test [1], 128 nM in test [2] and 4100 nM in test [3].
For `c1cc(N2CCCNCC2)nc(-n2ncc3cnc(-c4cnn(CC5COC5)c4)cc32)c1` [Compound 158, 1-(6-(1,4-Diazepan-1-yl)pyridin-2-yl)-6-(1-(oxetan-3-ylmethyl)-1H-pyrazol-4-yl)-1H-pyrazolo[4,3-c]pyridine], in that order: 284 nM, 287 nM and 2900 nM.
For `NC(=O)Cn1cc(-c2cc3c(cn2)cnn3-c2cccc(N3CCCNCC3)n2)cn1` [Compound 159, 2-(4-(1-(6-(1,4-Diazepan-1-yl)pyridin-2-yl)-1H-pyrazolo[4,3-c]pyridin-6-yl)-1H-pyrazol-1-yl)acetamide], in that order: 0.185 nM, 0.283 nM and 8.33 nM.
`Cc1cncc(-c2cc3c(cn2)cnn3-c2cccc(C3=CCNCC3)n2)n1` [Compound 160, 6-(6-methylpyrazin-2-yl)-1-[6-(1 2 3 6-tetrahydropyridin-4-yl)-2-pyridyl]pyrazolo[4,3-c]pyridine]: the results for the Ki in test [1], in test [2] and in test [3] were 1.06 nM, 1.17 nM and 8.31 nM, respectively.
Turning to `c1cc(N2CCCNCC2)nc(-n2ncc3cnc(-c4cnn(CC5CC5)c4)cc32)c1` [Compound 161, 1-(6-(1,4-Diazepan-1-yl)pyridin-2-yl)-6-(1-(cyclopropylmethyl)-1H-pyrazol-4-yl)-1H-pyrazolo[4,3-c]pyridine], the Ki in test [1] was 2.19 nM; in test [2] it was 1.86 nM; in test [3] it was 18.8 nM.
For `CCn1cc(-c2cc3c(cn2)cnn3-c2cncc(N3CCCNCC3)n2)cn1` [Compound 163, 1-(6-(1,4-diazepan-1-yl)pyrazin-2-yl)-6-(1-ethyl-1H-pyrazol-4-yl)-1H-pyrazolo[4,3-c]pyridine], in that order: 2.96 nM, 1.63 nM and 26.6 nM.
For `Cc1cnc(O)c(-c2cc3c(cn2)cnn3-c2cncc(N3CCCNCC3)n2)c1` [Compound 164, 3-(1-(6-(1,4-diazepan-1-yl)pyrazin-2-yl)-1H-pyrazolo[4,3-c]pyridin-6-yl)-5-methylpyridin-2-ol], the Ki was 14.8 nM in test [1], 50.2 nM in test [2] and 527 nM in test [3].
For the compound `CC(C)(C)c1cncc(-c2cc3c(cn2)cnn3-c2cccc(N3CCNCC3)n2)n1` [Compound 170, 6-(6-tert-butylpyrazin-2-yl)-1-(6-piperazin-1-yl-2-pyridyl)pyrazolo[4,3-c]pyridine], the Ki in test [1] is 8.02 nM; in test [2], 20.5 nM; in test [3], 91.2 nM.
For the compound `FC(F)n1cc(-c2cc3c(cn2)cnn3-c2cccc(N3CCCNCC3)n2)cn1` [Compound 173, 1-(6-(1,4-Diazepan-1-yl)pyridin-2-yl)-6-(1-(difluoromethyl)-1H-pyrazol-4-yl)-1H-pyrazolo[4,3-c]pyridine], the inhibitory constant (Ki) in test [1] is 1.09 nM; in test [2] it was 1.21 nM; in test [3] it was 9.54 nM.
The like results for `c1cc(N2CCCNCC2)nc(-n2ncc3cnc(-c4cncnc4)cc32)c1` [Compound 175, 1-(6-(1,4-Diazepan-1-yl)pyridin-2-yl)-6-(pyrimidin-5-yl)-1H-pyrazolo[4,3-c]pyridine] were, in that order, 6.72 nM, 11.3 nM and 196 nM.
For `N#Cc1cncc(-c2cc3c(cn2)cnn3-c2cccc(N3CCNCC3)n2)n1` [Compound 177, 6-[1-(6-piperazin-1-yl-2-pyridyl)pyrazolo[4,3-c]pyridin-6-yl]pyrazine-2-carbonitrile], in that order: 0.363 nM, 1.04 nM and 16.1 nM.
`Cc1cncc(-c2cc3c(cn2)cnn3-c2cccc(N3CCC4(CCNCC4)C3)n2)n1` [Compound 199, 2-[6-[6-(6-methylpyrazin-2-yl)pyrazolo[4,3-c]pyridin-1-yl]-2-pyridyl]-2 8-diazaspiro[4.5]decane]: the Ki in test [1] was found to be 0.655 nM; in test [2], 0.716 nM; in test [3], 13.7 nM.
For `Cc1cncc(-c2cc3c(cn2)cnn3-c2cccc(N3CCC4(CCNC4)CC3)n2)n1` [Compound 200, 8-[6-[6-(6-methylpyrazin-2-yl)pyrazolo[4,3-c]pyridin-1-yl]-2-pyridyl]-2 8-diazaspiro[4.5]decane], in that order: 0.451 nM, 1.21 nM and 17 nM.
For `Cc1cncc(-c2cc3c(cn2)cnn3-c2cccc(N3C[C@@H](N)CCC3=O)n2)n1` [Compound 202, (5S)-5-amino-1-[6-[6-(6-methylpyrazin-2-yl)pyrazolo[4,3-c]pyridin-1-yl]-2-pyridyl]piperidin-2-one], in that order: 36.4 nM, 56.4 nM and 421 nM.
`Cc1cncc(-c2cc3c(cn2)cnn3-c2cccc(N3CCNCCC3=O)n2)n1` [Compound 206, 4-[6-[6-(6-methylpyrazin-2-yl)pyrazolo[4,3-c]pyridin-1-yl]-2-pyridyl]-1 4-diazepan-5-one]: the Ki in test [1] was determined as 2.3 nM; in test [2], 3.74 nM; in test [3] it was 40.4 nM.
